Reference: US9708336B2, “Metallo-beta-lactamase inhibitors” (priority 2014, dated 2017)
Like-named read-outs stand apart in the source and are kept apart here.

Legend:
NDM-1 = NDM-1 (Klebsiella pneumoniae, UniProt C7C422); assay: biochemical; assay type: biochemical; conditions: read-out: NDM-1 IC50
IMP-1 = IMP-1 (Serratia marcescens, UniProt P52699); assay: biochemical; assay type: biochemical; conditions: read-out: IMP-1 IC50
VIM-1 = VIM-1 (Pseudomonas aeruginosa (strain ATCC 15692 / DSM 22644 / CIP 104116 / JCM 14847 / LMG 12228 / 1C / PRS 101 / PAO1), UniProt A0A0F7KYQ8); assay: Enzyme activity: determination of IC50, fluorescence assay with CCF2-FA substrate (VIM-1); assay type: biochemical
[1] = system: Escherichia coli expressing NDM-1 (CLB30016); assay: Antibiotic potentiation activity: synergistic concentration (MITC95) with imipenem, OD600 growth; assay type: cell-based
Summary of the method: (§1)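 Clinical MBL-producing strains (E. coli NDM-1, S. marcescens IMP-1, K. pneumoniae VIM-1) from overnight plates were diluted 1:100 into 1.1×CAMHB. Compound was tested with imipenem at 4 μg/ml (optionally 1 μg/ml) or without it. After 22–24 h at 35 °C, growth was read as OD600.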

[2] = system: Klebsiella pneumoniae expressing VIM-1 (IHMA599644); assay: as above; assay type: cell-based
Summary of the method: as §1

[3] = system: Serratia marcescens expressing IMP-1 (CL5741); assay: as above; assay type: cell-based
Summary of the method: as §1

[4] = NDM-1 enzyme, CCF2-FA fluorescence assay
[5] = IMP-1 enzyme, CCF2-FA fluorescence assay
[6] = VIM-1 enzyme, CCF2-FA fluorescence assay, read-out: VIM-1 IC50
[7] = Escherichia coli expressing NDM-1 (CLB30016), 95% growth inhibition
[8] = Klebsiella pneumoniae expressing VIM-1 (IHMA599644), 95% growth inhibition
[9] = Serratia marcescens expressing IMP-1 (CL5741), 95% growth inhibition
[10] = NDM-1 enzyme, CCF2-FA substrate
[11] = IMP-1 enzyme, CCF2-FA substrate
[12] = VIM-1 IC50, VIM-1 enzyme, CCF2-FA substrate
[13] = (CLB30016, NDM-1), 95% growth inhibition
[14] = Klebsiella pneumoniae IHMA599644 (VIM-1), 95% growth inhibition
[15] = Serratia marcescens CL5741 (IMP-1), 95% growth inhibition
[16] = fluorescence assay with CCF2-FA substrate
[17] = CLB30016 (NDM-1), 95% inhibition of bacterial growth
[18] = IHMA599644 (VIM-1), 95% inhibition of bacterial growth
[19] = CL5741 (IMP-1), 95% inhibition of bacterial growth
[20] = fluorescence assay with CCF2-FA substrate, read-out: VIM-1 IC50
[21] = VIM-1 IC50, VIM-1 enzyme, CCF2-FA fluorescence assay
[22] = concentration giving 95% inhibition of bacterial growth

NDM-1, sequence (C7C422 whole entry, looked up, species assumed): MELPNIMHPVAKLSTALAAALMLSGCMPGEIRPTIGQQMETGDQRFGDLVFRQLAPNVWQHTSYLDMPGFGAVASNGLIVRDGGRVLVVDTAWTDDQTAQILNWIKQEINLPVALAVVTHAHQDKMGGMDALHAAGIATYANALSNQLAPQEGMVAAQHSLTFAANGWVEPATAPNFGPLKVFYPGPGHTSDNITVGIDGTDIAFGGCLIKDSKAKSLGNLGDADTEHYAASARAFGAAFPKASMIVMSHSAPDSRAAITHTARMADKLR
IMP-1, sequence (P52699 whole entry, looked up): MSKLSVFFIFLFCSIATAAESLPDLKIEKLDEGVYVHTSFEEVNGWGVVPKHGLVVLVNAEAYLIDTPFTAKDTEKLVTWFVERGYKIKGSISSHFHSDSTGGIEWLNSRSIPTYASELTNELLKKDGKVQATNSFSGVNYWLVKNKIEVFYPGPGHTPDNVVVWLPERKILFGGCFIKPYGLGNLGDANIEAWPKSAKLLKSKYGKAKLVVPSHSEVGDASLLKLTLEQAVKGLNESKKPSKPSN

Row | Structure (SMILES) | IC50 (NDM-1; [4]) [nM] | IC50 (IMP-1; [5]) [nM] | IC50 (VIM-1; [6]) [nM] | Escherichia coli MITC95 [1, 7] [µM] | Klebsiella pneumoniae MITC95 [2, 8] [µM] | Serratia marcescens MITC95 [3, 9] [µM] | also measured
1 | CC(O)C1CCN(Cc2ccc(-c3cccc(S(N)(=O)=O)c3-c3nnn[nH]3)cc2)C1 (stereo not drawn) [Example 351, 4′-{[3-(1-hydroxyethyl)pyrrolidin-1-yl]methyl}-2-(1H-tetrazol-5-yl)biphenyl-3-sulfonamide] | 18.1 | 332 | 414 | 1.563 | 150 | 3.125 | –
2 | NS(=O)(=O)c1cccc(-c2ccc(CNC3CCC(=O)NC3)cc2)c1-c1nnn[nH]1 (stereo not drawn) [Example 375, 4′-{[(6-oxopiperidin-3-yl)amino]methyl}-2-(1H-tetrazol-5-yl)biphenyl-3-sulfonamide] | 6.13 | 97.6 | 533 | 1.563 | >200 | 3.125 | –
3 | NS(=O)(=O)c1c(C(F)(F)F)ccc(-c2ccc(C3CCN(C[C@H]4CCCN4)CC3)cc2)c1-c1nnn[nH]1 [Example 675, 4′-{1-[(2R)-pyrrolidin-2-ylmethyl]piperidin-4-yl}-2-(1H-tetrazol-5-yl)-4-(trifluoromethyl)biphenyl-3-sulfonamide] | – | – | – | – | – | – | IC50 (NDM-1; [10]): 4.53 nM; IC50 (IMP-1; [11]): 1.94 nM; IC50 (VIM-1; [12]): 14.7 nM; Escherichia coli MITC95 [1, 13]: 4.688 µM; Klebsiella pneumoniae MITC95 [2, 14]: 150 µM; Serratia marcescens MITC95 [3, 15]: 6.25 µM
4 | Nc1nc(N)c2ccc(-c3ccc(C(F)(F)F)c(S(N)(=O)=O)c3-c3nnn[nH]3)cc2n1 [Example 750, 3-(2,4-diaminoquinazolin-7-yl)-2-(1H-tetrazol-5-yl)-6-(trifluoromethyl)benzenesulfon-amide] | – | – | – | – | – | – | IC50 (NDM-1; [16]): 4.75 nM; IC50 (IMP-1; [16]): 21.5 nM; IC50 (VIM-1; VIM-1 IC50, fluorescence assay with CCF2-FA substrate): 0.432 nM; Escherichia coli MITC95 [1, 17]: 1.563 µM; Klebsiella pneumoniae MITC95 [2, 18]: 3.125 µM; Serratia marcescens MITC95 [3, 19]: 6.25 µM
5 | CC(O)C1CCN(c2ccnc(S(N)(=O)=O)c2-c2nnn[nH]2)CC1 (stereo not drawn) [Example 244, 4-[4-(1-hydroxyethyl)piperidin-1-yl]-3-(1H-tetrazol-5-yl)pyridine-2-sulfonamide] | 51.2 | 682 | 125 | 1.563 | 37.5 | 18.75 | –
6 | Nc1nccc(-c2cccc(-c3ccc(C(F)(F)F)c(S(N)(=O)=O)c3-c3nnn[nH]3)c2)n1 [Example 753, 3′-(2-aminopyrimidin-4-yl)-2-(1H-tetrazol-5-yl)-4-(trifluoromethyl)biphenyl-3-sulfonamdie] | – | – | – | – | – | – | IC50 (NDM-1; [16]): 1.01 nM; IC50 (IMP-1; [16]): 2.02 nM; IC50 (VIM-1; [20]): 0.754 nM; Escherichia coli MITC95 [1, 17]: 12.5 µM; Klebsiella pneumoniae MITC95 [2, 18]: 100 µM; Serratia marcescens MITC95 [3, 19]: 12.5 µM
7 | NCc1nccc2cc(-c3cccc(S(N)(=O)=O)c3-c3nn[nH]n3)ccc12 [Example 280, 3-(1-(aminomethyl)isoquinolin-6-yl)-2-(2H-tetrazol-5-yl)benzenesulfonamide] | 1.44 | 15.8 | – | 0.5859 | 3.125 | 6.25 | IC50 (VIM-1; [21]): 20.4 nM
8 | NS(=O)(=O)c1nccc(N2CCC(c3nnc4ccccn34)CC2)c1-c1nnn[nH]1 [Example 241, 3-(1H-tetrazol-5-yl)-4-(4-[1,2,4]triazolo[4,3-a]pyridin-3-ylpiperidin-1-yl)pyridine-2-sulfonamide] | 67.7 | 335 | – | 1.563 | >200 | 12.5 | IC50 (VIM-1; [21]): 774 nM
9 | NC1CC(N2CCC(c3ccc(-c4ccc(C(F)(F)F)c(S(N)(=O)=O)c4-c4nnn[nH]4)cc3)CC2)C1 (stereo not drawn) [Example 790, 4′-[1-(3-aminocyclobutyl)piperidin-4-yl]-2-(1H-tetrazol-5-yl)-4-(trifluoromethyl)biphenyl-3-sulfonamide] | – | – | – | – | – | – | IC50 (NDM-1; [16]): 3.57 nM; IC50 (IMP-1; [16]): 0.871 nM; IC50 (VIM-1; [20]): 7.26 nM; Escherichia coli MITC95 [1, 17]: 0.7813 µM; Klebsiella pneumoniae MITC95 [2, 18]: 12.5 µM; Serratia marcescens MITC95 [3, 19]: 3.125 µM
10 | NS(=O)(=O)c1c(CC2CCNC2)ccc(-c2ccc(C3CCNCC3)cc2)c1-c1nn[nH]n1 (stereo not drawn) [Example 468, 4′-(piperidin-4-yl)-4-(pyrrolidin-3-ylmethyl)-2-(2H-tetrazol-5-yl)-[1,1′-biphenyl]-3-sulfonamide] | 9.95 | 13.5 | 3.81 | 0.7813 | 1.563 | 1.563 | –
11 | CN(C)CCCN(C)Cc1ccc(-c2cccc(S(N)(=O)=O)c2-c2nnn[nH]2)cc1 [Example 368, 4′-({[3-(dimethylamino)propyl](methyl)amino}methyl)-2-(1H-tetrazol-5-yl)biphenyl-3-sulfonamide] | 23.4 | 417 | 1680 | 1.563 | >200 | 9.375 | –
12 | C[N+]1(C)CCC(c2ccc(-c3cccc(S(N)(=O)=O)c3-c3nnn[nH]3)cc2)CC1.O=C([O-])C(F)(F)F [Example 33, 1,1-dimethyl-4-(3′-sulfamoyl-2′-(1H-tetrazol-5-yl)-[1,1′-biphenyl]-4-yl)piperidin-1-ium 2,2,2-trifluoroacetate] | – | – | – | – | – | – | IC50 (NDM-1; [16]): 16.6 nM; IC50 (IMP-1; [16]): 70.6 nM; IC50 (VIM-1; [20]): 832 nM; Escherichia coli expressing NDM-1 (CLB 30016) MITC95 [1, 22]: 1.172 µM; Klebsiella pneumoniae expressing VIM-1 (IHMA 599644) MITC95 [2, 22]: 100 µM; Serratia marcescens expressing IMP-1 (CL5741) MITC95 [3, 22]: 1.172 µM
13 | NS(=O)(=O)c1cccc(-c2cnc3nc(C(F)(F)F)ccn23)c1-c1nnn[nH]1 [Example 650, 2-(1H-tetrazol-5-yl)-3-[7-(trifluoromethyl)imidazo[1,2-a]pyrimidin-3-yl]benzenesulfonamide] | – | – | – | – | – | – | IC50 (NDM-1; [10]): 22.1 nM; IC50 (IMP-1; [11]): 1260 nM; IC50 (VIM-1; VIM-1 enzyme, CCF2-FA substrate, read-out: VIM-1 IC50): 46.8 nM; Escherichia coli MITC95 [1, 13]: 1.563 µM; Klebsiella pneumoniae MITC95 [2, 14]: 50 µM; Serratia marcescens MITC95 [3, 15]: 100 µM
14 | NS(=O)(=O)c1c(C(F)(F)F)ccc(-c2ccc(C3CNC3)cc2)c1-c1nn[nH]n1 [Example 433, 4′-(azetidin-3-yl)-2-(2H-tetrazol-5-yl)-4-(trifluoromethyl)-[1,1′-biphenyl]-3-sulfonamide] | 0.875 | 0.563 | 0.984 | 0.6406 | 0.7656 | 0.1875 | –
15 | N=C(N)NC1Cc2ccc(-c3ccc(C(F)(F)F)c(S(N)(=O)=O)c3-c3nn[nH]n3)cc2C1 (stereo not drawn) [Example 447, 3-(2-guanidino-2,3-dihydro-1H-inden-5-yl)-2-(2H-tetrazol-5-yl)-6-(trifluoromethyl)benzenesulfonamide] | 7.13 | 4.26 | 0.171 | 1.086 | 0.8906 | 0.125 | –
16 | NC[C@H]1CC[C@H](Cc2ccc(-c3ccc(C4CNC4)cc3)c(-c3nnn[nH]3)c2S(N)(=O)=O)CC1 [Example 601, 4-(((1r,4r)-4-(aminomethyl)cyclohexyl)methyl)-4′-(azetidin-3-yl)-2-(1H-tetrazol-5-yl)-[1,1′-biphenyl]-3-sulfonamide] | – | – | – | – | – | – | IC50 (NDM-1; [10]): 1.66 nM; IC50 (IMP-1; [11]): 13.1 nM; IC50 (VIM-1; [12]): 0.587 nM; Escherichia coli MITC95 [1, 13]: 1.563 µM; Klebsiella pneumoniae MITC95 [2, 14]: 1.563 µM; Serratia marcescens MITC95 [3, 15]: 3.125 µM
